# Assay results taken from patent publication US9737075B2, “Synergistic benzoxaborole-containing anti-fungicidal composition” (The Penn State Research Foundation, priority 2015, dated 2017).
# Read-outs that look alike come from different tables or passages of the source.
# What was measured:
# Format in all cases: cell-based
# [1] = system: Phytophthora pini; assay: Broth microdilution MIC of individual antifungals; settings: individual antifungal, 25% PDB, about 25° C., 72 hours, range over N independent triplicate studies
# [2] = system: Aureobasidium pullulans; assay: Broth microdilution MIC of individual antifungals; settings: individual antifungal, 25% PDB, about 25° C., 72 hours, range over N independent triplicate studies; for MIC: read-out: Independent MIC
# [3] = system: Aspergillus flavus; assay: Broth microdilution MIC of individual antifungals; settings: individual antifungal, 25% PDB, about 25° C., 72 hours, range over N independent triplicate studies
# [4] = system: Botrytis cinerea 10-1728; assay: Broth microdilution MIC of individual antifungals; settings: Botrytis cinerea 10-1728, individual antifungal, 25% PDB, about 25° C., 72 hours, range over N independent triplicate studies; for MIC: 101728, read-out: Independent MIC
# [5] = system: Sclerotinia homoeocarpa; assay: Broth microdilution MIC of individual antifungals; settings: Sclerotinia homoeocarpa, individual antifungal, 25% PDB, about 25° C., 72 hours, range over N independent triplicate studies; for MIC: Clarireedia homoeocarpa, read-out: Independent MIC
# [6] = system: Stachybotrys chartarum; assay: Broth microdilution MIC of individual antifungals; settings: individual antifungal, 25% PDB, about 25° C., 72 hours, range over N independent triplicate studies
# [7] = system: Fusarium verticillioides; assay: Broth microdilution MIC of individual antifungals; settings: individual antifungal, 25% PDB, about 25° C., 72 hours, range over N independent triplicate studies
# [8] = system: Penicillium chrysogenum; assay: Broth microdilution MIC of individual antifungals; settings: individual antifungal, 25% PDB, about 25° C., 72 hours, range over N independent triplicate studies; for MIC: read-out: Independent MIC
# [9] = system: Aspergillus niger; assay: Broth microdilution MIC of individual antifungals; settings: individual antifungal, 25% PDB, about 25° C., 72 hours, range over N independent triplicate studies; for MIC: read-out: Independent MIC
# [10] = system: Botrytis cinerea B17; assay: Broth microdilution MIC of individual antifungals; settings: Botrytis cinerea B17, individual antifungal, 25% PDB, about 25° C., 72 hours, range over N independent triplicate studies
# [11] = system: Fusarium oxysporum ST33; assay: Broth microdilution MIC of individual antifungals; settings: individual antifungal, 25% PDB, about 25° C., 72 hours, range over N independent triplicate studies
# [12] = system: Fusarium graminearum; assay: microbe, parasite or virus in culture; settings: for MIC: 72 h, read-out: Independent MIC
# [13] = system: Magnaporthe grisea; assay: microbe, parasite or virus in culture; settings: for MIC: Pyricularia oryzae, 72 h, read-out: Independent MIC
# [14] = system: Aspergillus fumigatus; assay: Broth microdilution MIC of individual antifungals; settings: individual antifungal, 25% PDB, about 25° C., 72 hours, range over N independent triplicate studies; for MIC: read-out: Independent MIC
# [15] = system: Pythium aphanodermatum; assay: Broth microdilution MIC of individual antifungals; settings: individual antifungal, 25% PDB, about 25° C., 72 hours, range over N independent triplicate studies
# [16] = system: Fusarium oxysporum f. sp. lycopersici; assay: Broth microdilution MIC of individual antifungals; settings: individual antifungal, 25% PDB, about 25° C., 72 hours, range over N independent triplicate studies
# [17] = system: Mycosphaerella zeae-maydis; assay: Broth microdilution MIC of individual antifungals; settings: individual antifungal, 25% PDB, about 25° C., 72 hours, range over N independent triplicate studies; for MIC: Didymella maydis
# [18] = system: Mucor sp.; assay: Broth microdilution MIC of individual antifungals; settings: individual antifungal, 25% PDB, about 25° C., 72 hours, range over N independent triplicate studies
# [19] = system: Alternaria solani; assay: Broth microdilution MIC of individual antifungals; settings: individual antifungal, 25% PDB, about 25° C., 72 hours, range over N independent triplicate studies
# [20] = system: Rhizopus sp.; assay: Broth microdilution MIC of individual antifungals; settings: Rhizopus sp.; individual antifungal, 25% PDB, about 25° C., 72 hours; range over N independent triplicate studies
# [21] = system: Candida albicans; assay: Broth microdilution MIC of individual antifungals; settings: individual antifungal, 25% PDB, about 25° C., 72 hours, range over N independent triplicate studies
# [22] = system: Fusarium solani f. sp. pisi (MP VI); assay: Broth microdilution MIC of individual antifungals; settings: Fusarium solani f. sp. pisi (MP VI); individual antifungal, 25% PDB, about 25° C., 72 hours; range over N independent triplicate studies
# [23] = system: Colletotrichum orbiculare; assay: Broth microdilution MIC of individual antifungals; settings: individual antifungal, 25% PDB, about 25° C., 72 hours, range over N independent triplicate studies
# [24] = system: Rhizoctonia solani; assay: Broth microdilution MIC of individual antifungals; settings: individual antifungal, 25% PDB, about 25° C., 72 hours, range over N independent triplicate studies
compound,measurement,setting,value
c1ccc2[nH]c(-c3cscn3)nc2c1 [Thiabendazole],MIC,[1],100 µg/mL
same,MIC,[2],0.2 to 0.39 µg/mL
same,MIC,[3]; read-out: Independent MIC,12.5 to 40 µg/mL
same,MIC,[4],200 to 400 µg/mL
same,MIC,[5],20 to 25 µg/mL
same,MIC,[6]; read-out: Independent MIC,25 to 30 µg/mL
same,MIC,[7]; read-out: Independent MIC,3 to 6.25 µg/mL
same,MIC,[8],0.375 to 0.39 µg/mL
same,MIC,[9],12.5 to 50 µg/mL
same,MIC,[10]; read-out: Independent MIC,50 µg/mL
same,MIC,[11],25 to 80 µg/mL
same,MIC,[12]; Fusarium graminearum,1.5 to 3.12 µg/mL
same,MIC,[13],1.56 to 3.13 µg/mL
same,MIC,[14],12.5 to 50 µg/mL
same,MIC,[15],200 to 400 µg/mL
same,MIC,[16],200 to 400 µg/mL
same,MIC,[17],12.5 to 25 µg/mL
"COC(=O)NC(=S)Nc1ccccc1NC(=S)NC(=O)OC [Thiophanate-Methyl, thiophanate-methyl]",MIC,[1],25 µg/mL
same,MIC,[2],0.1 to 0.39 µg/mL
same,MIC,[4],200 to 400 µg/mL
same,MIC,[5],0.5 to 1 µg/mL
same,MIC,[8],12.5 µg/mL
same,MIC,[9],25 µg/mL
same,MIC,[12]; Fusarium graminearum,100 to 400 µg/mL
same,MIC,[13],25 to 50 µg/mL
same,MIC,[14],50 to 100 µg/mL
same,MIC,[15],400 µg/mL
same,MIC,[18],200 to 400 µg/mL
same,MIC,[17],25 to 50 µg/mL
mancozeb,Independent MIC,[19],(10-12.5) μg/mL
same,Independent MIC,[1],0.39 µg/mL
same,Independent MIC,[2],(6.25-12.5) μg/mL
same,Independent MIC,[20],(25-80) μg/mL
same,Independent MIC,[3],(6.25-25)^ μg/mL
same,Independent MIC,[4],3.125 µg/mL
same,Independent MIC,[5],(8-20) μg/mL
same,Independent MIC,[6],(3.125-6.25) μg/mL
same,Independent MIC,[7],(4-8) μg/mL
same,Independent MIC,[21],50 µg/mL
same,Independent MIC,[8],(6.25-12.5) μg/mL
same,Independent MIC,[9],(25-50) μg/mL
same,Independent MIC,[22],100 µg/mL
same,Independent MIC,[10],(32-64) μg/mL
same,Independent MIC,[11],(32-80) μg/mL
same,Independent MIC,[23],(6.25-12.5) μg/mL
same,Independent MIC,"[12]; Fusarium graminearum, individual antifungal, 25% PDB, about 25° C., 72 hours, range over N independent triplicate studies",12.5 µg/mL
same,Independent MIC,"[13]; Magnaporthe grisea, individual antifungal, 25% PDB, about 25° C., 72 hours, range over N independent triplicate studies",6.25 µg/mL
same,Independent MIC,[14],100 µg/mL
same,Independent MIC,[15],(28-50) μg/mL
same,Independent MIC,[18],(50-100) μg/mL
same,Independent MIC,[16],(6-12.5) μg/mL
same,Independent MIC,[17],(3.125-8) ^ μg/mL
maneb,Independent MIC,[24],(50-100) μg/mL
same,Independent MIC,[19],(25-50) μg/mL
same,Independent MIC,[1],3.125 µg/mL
same,Independent MIC,[20],(50-100) μg/mL
same,Independent MIC,[3],(12.5-25)^ μg/mL
same,Independent MIC,[4],(12.5-40)^ μg/mL
same,Independent MIC,[5],1.56 µg/mL
same,Independent MIC,[7],6.25 µg/mL
same,Independent MIC,[21],1.56 µg/mL
same,Independent MIC,[8],25 µg/mL
same,Independent MIC,[9],(50-100) μg/mL
same,Independent MIC,[22],25 µg/mL
same,Independent MIC,[23],(3.13-6.25) μg/mL
same,Independent MIC,[12],12.5 µg/mL
same,Independent MIC,[13],1.56 µg/mL
same,Independent MIC,[14],3.125 µg/mL
same,Independent MIC,[18],(25-50) μg/mL
same,Independent MIC,[17],25 µg/mL
